Results published in patent US20110224079A1, “SPIROHETEROCYCLIC N-OXYAMIDES AS PESTICIDES” (SYNGENTA CROP PROTECTION LLC, priority 2008, published 2011).

Tests used:
[1] = tested on: Bemisia tabaci (tobacco white fly); assay: Example B7: activity against Bemisia tabaci, sprayed bean plants (larvicide, contact/feeding); type: in vivo; conditions: 504 h, bean plants with N-2 nymphs sprayed, three weeks, read-out: activity (efficacy, number of emerged adults)
Protocol: Activity Against Bemisia tabaci (Tobacco White Fly)
(Larvicide, Contact/Feeding)
Bean plants are infested with 20-30 adults that were removed after a 4 day egg-laying period. After another 7 days, bean plants with hatched nymphs (N-2) are treated (2 replicates) with the test solutions in a spray chamber. Three weeks later, samples are checked for number of emerged adults. Efficacy was calculated by comparing number of emerged adults in treated and non treated samples.

[2] = tested on: Aphis Craccivora (cowpea aphid); assay: Example B10: activity against Aphis craccivora, pea seedling roots in test solution (systemic/feeding); type: in vivo; conditions: 144 h, roots of infested pea seedlings in test solution, 6 days
Text: (§1) Activity Against Aphis Craccivora (Cowpea Aphid)
(Mixed Population, Systemic/Feeding)

[3] = tested on: Aphis Craccivora (cowpea aphid); assay: Example B9: activity against Aphis craccivora, sprayed pea seedlings (contact/feeding); type: in vivo; conditions: 144 h, infested pea seedlings sprayed, 6 days
Text: as §1
(Mixed Population, Contact/Feeding)
6 days after treatment, samples are checked for mortality.

[4] = tested on: Myzus persicae (green peach aphid); assay: Example B13: drench activity against Myzus persicae, pea seedlings in field soil; conditions: 168 h, read-out: drench activity (mortality)
[5] = tested on: Myzus persicae (green peach aphid); assay: Example B1: activity against Myzus persicae, sprayed sunflower leaf discs (feeding/residual contact, preventive); conditions: foliar, 144 h, read-out: activity (mortality)
[6] = tested on: Aphis Craccivora (cowpea aphid); assay: Example B11: translaminar activity against Aphis craccivora on French bean leaves; type: in vivo; conditions: 120 h, upper leaf side painted, aphids on lower side, 5 days
Protocol: Translaminar Activity Against Aphis Craccivora (Cowpea Aphid)
French bean leaves (Phaseolus vulgaris) are infested with about 20 mixed age individuals on the lower leaf side using clip cages. 1 day after the infestation, the upper side of the leaves is treated with the test solution by painting. 5 days later, samples are checked for mortality.

[7] = tested on: Myzus persicae (green peach aphid); assay: Example B17: activity against Myzus persicae on sprayed pepper plants (feeding/residual contact); type: in vivo; conditions: 144 h, infested pepper plants sprayed, 6 days
[8] = tested on: Nilaparvata lugens (brown rice planthopper); assay: Example B8: activity against Nilaparvata lugens, sprayed rice seedlings (larvicide, feeding/contact); conditions: in Oryza sativa, read-out: activity (mortality, growth regulation, effects on F1 generation)
[9] = tested on: Myzus persicae (green peach aphid); assay: Example B2: activity against Myzus persicae, pea seedling roots in test solution (systemic/feeding, curative); conditions: 144 h, read-out: activity (mortality)
[10] = tested on: Frankliniella occidentalis (western flower thrips); assay: Example B6: activity against Frankliniella occidentalis, bean leaf discs or bean plants; type: in vivo; conditions: foliar, 6 days (leaf discs) or 14 days (plants) after infestation, read-out: activity (reduction of treated population)
Protocol: Activity Against Frankliniella occidentalis (Western Flower Thrips)
Bean leaf discs on agar in petri dishes or bean plants in a spray chamber are treated with diluted test solutions. After drying leaf discs are cut and placed in plastic cups on the surface of an agar layer and infested with mixed population. 6 days (leaf discs) or 14 days (plants) after the infestation, samples are checked for reduction of treated population and compared to the non treated population.

[11] = tested on: Thrips tabaci (onion thrips); assay: Example B3: activity against Thrips tabaci, sprayed sunflower leaf discs (feeding/residual contact, preventive); type: in vivo; conditions: foliar, 144 h, mixed population, 6 days
Text: Activity Against Thrips tabaci (Onion Thrips)
(Mixed Population, Feeding/Residual Contact Activity, Preventive)

[12] = tested on: Tetranychus urticae (two-spotted spider mite); assay: Example B4: activity against Tetranychus urticae, sprayed bean leaf discs (feeding/residual contact, preventive); conditions: foliar, 192 h, read-out: activity (egg, larval and adult mortality)

CCON1C(=O)C(c2c(C)cc(C)cc2C)=C(O)C12CCN(OC)CC2 [P2.9]
≥ 80%: mortality at 200 ppm [7]
> 80%: pest or weed control at 200 ppm [1] | mortality at 400 ppm [2] | mortality at 400 ppm [3] | mortality at 25 ppm [4] | mortality at 400 ppm [5] | mortality at 400 ppm [6] | mortality at 400 ppm [8] | mortality at 400 ppm [9] | pest or weed control at 400 ppm [10]

CCOCON1C(=O)C(c2c(C)cc(C)cc2C)=C(O)C12CCN(OC)CC2 [P2.10]
> 80%: mortality at 400 ppm [2] | mortality at 400 ppm [5] | mortality at 400 ppm [11] | mortality at 400 ppm [6] | mortality at 400 ppm [8] | mortality at 400 ppm [9] | pest or weed control at 400 ppm [10]
≥ 80%: mortality at 200 ppm [7]

CON1CCC2(CC1)C(O)=C(c1c(C)cc(C)cc1C)C(=O)N2OC(C)C [P2.11]
≥ 80%: mortality at 200 ppm [7]
> 80%: mortality at 400 ppm [12] | mortality at 25 ppm [4] | mortality at 400 ppm [9] | pest or weed control at 400 ppm [10]

C=CCON1C(=O)C(c2c(C)cc(C)cc2C)=C(O)C12CCN(OC)CC2 [P2.12]
≥ 80%: mortality at 200 ppm [7]
> 80%: pest or weed control at 200 ppm [1] | mortality at 400 ppm [12] | mortality at 25 ppm [4] | mortality at 400 ppm [5] | mortality at 400 ppm [6] | mortality at 400 ppm [9] | pest or weed control at 400 ppm [10]

CON1CCC2(CC1)C(O)=C(c1c(C)cc(C)cc1C)C(=O)N2OCC1CC1 [P2.13]
> 80%: mortality at 400 ppm [12] | mortality at 400 ppm [2] | mortality at 400 ppm [3] | mortality at 25 ppm [4] | mortality at 400 ppm [5] | mortality at 400 ppm [11] | mortality at 400 ppm [6] | mortality at 400 ppm [8] | mortality at 400 ppm [9] | pest or weed control at 400 ppm [10]
≥ 80%: mortality at 200 ppm [7]

COCCOCON1C(=O)C(c2c(C)cc(C)cc2C)=C(O)C12CCN(OC)CC2 [P2.24]
≥ 80%: mortality at 200 ppm [7]
> 80%: mortality at 400 ppm [12] | mortality at 400 ppm [2] | mortality at 400 ppm [3] | mortality at 25 ppm [4] | mortality at 400 ppm [5] | mortality at 400 ppm [6] | mortality at 400 ppm [8] | mortality at 400 ppm [9]

CON1CCC2(CC1)C(O)=C(c1c(C)cc(C)cc1C)C(=O)N2OC1CCC1 [P2.30]
> 80%: mortality at 400 ppm [12] | mortality at 25 ppm [4] | mortality at 400 ppm [5] | mortality at 400 ppm [6] | mortality at 400 ppm [9] | pest or weed control at 400 ppm [10]
≥ 80%: mortality at 200 ppm [7]

COCON1C(=O)C(c2c(C)cc(C)cc2Cl)=C(O)C12CCN(OC)CC2 [P2.34]
> 80%: mortality at 400 ppm [12] | mortality at 400 ppm [2] | mortality at 400 ppm [3] | mortality at 25 ppm [4] | mortality at 400 ppm [5] | mortality at 400 ppm [11] | mortality at 400 ppm [6] | mortality at 400 ppm [8] | mortality at 400 ppm [9]

COCON1C(=O)C(c2c(C)ccc(C)c2C)=C(O)C12CCN(OC)CC2 [P2.54]
> 80%: mortality at 400 ppm [2] | mortality at 25 ppm [4] | mortality at 400 ppm [5] | mortality at 400 ppm [6] | mortality at 400 ppm [9] | pest or weed control at 400 ppm [10]
≥ 80%: mortality at 200 ppm [7]

CON1CCC2(CC1)C(O)=C(c1c(C)cc(C)cc1Cl)C(=O)N2OC [P2.55]
> 80%: mortality at 400 ppm [12] | mortality at 400 ppm [2] | mortality at 25 ppm [4] | mortality at 400 ppm [5] | mortality at 400 ppm [6] | mortality at 400 ppm [8] | mortality at 400 ppm [9] | pest or weed control at 400 ppm [10]

CON1CCC2(CC1)C(O)=C(c1c(C)cc(C)cc1Br)C(=O)N2OC [P2.56]
> 80%: mortality at 400 ppm [12] | mortality at 400 ppm [2] | mortality at 25 ppm [4] | mortality at 400 ppm [5] | mortality at 400 ppm [6] | mortality at 400 ppm [9] | pest or weed control at 400 ppm [10]
